PubChem BioAssay (NCI)
Where “and” joins values, the source holds several entries; their conditions need not be identical. Equal entries are not always repeated.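 48-hour exposure; five concentrations; linearly interpolated endpoints. GI50 = concentration required for 50% inhibition of growth. The concentration for full growth arrest is given as TGI.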

How the values were obtained:
Assay in all cases: NCI tumour cell line growth inhibition, 48 h
CCRF-CEM leukemia = test system: CCRF-CEM leukemia
HCT-116 colon = test system: HCT-116 colon
HCT-15 colon = test system: HCT-15 colon
HL-60(TB) leukemia = test system: HL-60(TB) leukemia
NCI-H23 lung = test system: NCI-H23 lung
OVCAR-3 ovarian = test system: OVCAR-3 ovarian
RXF-631 renal = test system: RXF-631 renal
SF-539 CNS = test system: SF-539 CNS
UO-31 renal = test system: UO-31 renal
XF 498 CNS = test system: XF 498 CNS
A498 renal = test system: A498 renal

| Structure (SMILES) | TGI (CCRF-CEM leukemia) [µM] | TGI (HCT-116 colon) [µM] | TGI (HCT-15 colon) [µM] | TGI (HL-60(TB) leukemia) | TGI (NCI-H23 lung) [µM] | TGI (OVCAR-3 ovarian) | TGI (RXF-631 renal) [µM] | TGI (SF-539 CNS) | TGI (UO-31 renal) | TGI (XF 498 CNS) [µM] | TGI (A498 renal) [µM] | GI50 (A498 renal) | GI50 (OVCAR-3 ovarian) | GI50 (SF-539 CNS) | GI50 (CCRF-CEM leukemia) [µM] | GI50 (HCT-116 colon) [µM] | GI50 (HCT-15 colon) [µM] | GI50 (HL-60(TB) leukemia) [µM] | GI50 (NCI-H23 lung) [µM] | GI50 (UO-31 renal) [µM] |
| --- | --- | --- | --- | --- | --- | --- | --- | --- | --- | --- | --- | --- | --- | --- | --- | --- | --- | --- | --- | --- |
| CC1C=CC(=O)C(n2cc(F)c(=O)[nH]c2=O)O1 (configuration not stated) | 34.4 | 29.1 | 42.4 | 47.9 µM | 40.7 | 31.2 µM | 48 | 31.2 µM | 30 µM | 28.7 | – | – | – | – | – | – | – | – | – | – |
| OCC12C3C4C1C1C2C3C41CO (configuration not stated) | > 100 | – | > 100 | – | > 100 | > 100 µM | > 100 | > 100 µM | > 100 µM | > 100 | > 100 | – | – | – | – | – | – | – | – | – |
| CC(C)(C)c1ccc(C(O)c2ccc(C(C)(C)C)cc2)cc1 | 38.9 | 24.5 | 24.6 | 35.6 µM | 25.5 | 27.6 µM | – | 31.5 µM | 29.7 µM | 28.4 | 32.9 | – | – | – | – | – | – | – | – | – |
| CC(C)=CC(=O)Cc1nc2cc(C)c(C)cc2[nH]c1=O | > 100 | > 100 | > 100 | > 100 µM | > 100 | > 100 µM | > 100 | > 100 µM | > 100 µM | – | > 100 | – | – | – | – | – | – | – | – | – |
| COc1ccc(/C=C2\CCC(C)(CN(C)C)C2=O)cc1 (configuration not stated) | – | > 100 | > 100 | > 100 µM | > 100 | > 100 µM | > 100 | > 100 µM | > 100 µM | > 100 | > 100 | – | – | – | – | – | – | – | – | – |
| CCOC(=O)c1cn(Cc2ccccc2)c(=O)n1Cc1ccccc1 | > 100 | > 100 | > 100 | > 100 µM | > 100 | > 100 µM | > 100 | > 100 µM | > 100 µM | > 100 | > 100 | – | – | – | – | – | – | – | – | – |
| COC(=O)C1=C(CO)C2C=CC1C2 (configuration not stated) | > 100 | > 100 | > 100 | > 100 µM | > 100 | > 100 µM | > 100 | > 100 µM | > 100 µM | > 100 | > 100 | – | – | – | – | – | – | – | – | – |
| CC1OC(OCC2COC(O)(Oc3c(-c4ccc(O)c(O)c4)oc4cc(O)cc(O)c4c3=O)C(O)C2O)C(O)C(O)C1O (configuration not stated) | > 100 | > 100 | > 100 | > 100 µM | > 100 | > 100 µM | > 100 | > 100 µM | > 100 µM | > 100 | > 100 | – | – | – | – | – | – | – | – | – |
| Nc1nc2nc[nH]c2c(=O)[nH]1 | > 100 | > 100 | > 100 | > 100 µM | > 100 | > 100 µM | – | > 100 µM | > 100 µM | > 100 | > 100 | – | – | – | – | – | – | – | – | – |
| NC1=N/C(=C2/CCNC(=O)c3[nH]c(Br)cc32)C(=O)N1 | > 100 | > 100 | > 100 | 11.2 µM and 6.94 µM | > 100 | 43 µM and 40.1 µM | – | 17.3 µM and 35.5 µM | > 73 µM and 29.8 µM | > 100 | > 100 | 45.9 µM and > 100 µM | 4.29 µM and 10.7 µM | 4.29 µM and 13 µM | – | – | – | – | – | – |
| CCCc1nc2c(C)cc(-c3nc4ccccc4n3C)cc2n1Cc1ccc(-c2ccccc2C(=O)O)cc1 | > 100 | > 100 | > 100 | 77.4 µM | > 100 | 37.3 µM | – | > 100 µM | 51.5 µM | – | > 100 | 20.4 µM | 14.7 µM | 46.5 µM | 22.7 | 43.4 | 20.3 | 28.8 | 51.5 | 19.3 |
| Nc1ncnc2c1ncn2C1OC(CO)=CC1O (configuration not stated) | > 37.5 | > 37.5 | > 37.5 | > 37.5 µM | > 37.5 | > 37.5 µM | – | > 37.5 µM | > 37.5 µM | – | > 37.5 | – | – | – | – | – | – | – | – | – |
| CCn1cnc2c(Nc3cccc(Cl)c3)nc(N[C@@H]3CCCC[C@@H]3N)nc21 | 9.66 | 2.87 | 8.75 | 3.93 µM | 3.59 | 4.4 µM | – | 2.8 µM | 4.04 µM | – | 3.93 | 1.9 µM | 1.18 µM | 1.42 µM | 2.88 | 1.12 | 2.08 | 1.78 | 1.38 | 1.6 |
| O=C1OC(O)C(Oc2ccc(Cl)cc2)=C1Cl (configuration not stated) | > 100 | > 100 | > 100 | > 100 µM | > 100 | > 100 µM | > 100 | > 100 µM | > 100 µM | – | > 100 | – | – | – | – | – | – | – | – | – |
| Cc1cc(Cl)cc2c1NC(=O)C2(O)C(C)C(=O)c1ccc(Cl)cc1 (configuration not stated) | > 89.4 | > 100 | > 100 | 43.5 µM | > 100 | > 100 µM | – | > 100 µM | > 100 µM | > 100 | > 91.6 | – | – | – | – | – | – | – | – | – |
| N#CCCN(c1ccc(-c2nnc(NC(=O)CNNC(=O)CC(=O)Nc3ccccc3)s2)cc1)S(=O)(=O)c1ccccc1 | > 100 | > 100 | > 100 | > 100 µM | > 100 | > 100 µM | > 100 | > 100 µM | > 100 µM | > 100 | > 100 | – | – | – | – | – | – | – | – | – |
| NC(=S)N/N=C1/C(=O)N(c2ccc(Cl)cc2Cl)C(=O)C(=O)C1c1nc2ccccc2s1 (configuration not stated) | – | > 100 | > 100 | – | > 100 | > 100 µM | – | > 100 µM | > 100 µM | > 100 | – | – | – | – | – | – | – | – | – | – |
| Cc1cc(O)cc2c1O[C@@]1(C)CCC3[C@@]4(C)CC[C@H](O)C(C)(C)C4CC[C@@]3(C)[C@H]1C2 (some centres not stated) | 7.08 | 16.1 | 12.7 | 13.5 µM | 29.2 | 19.8 µM | – | 6.43 µM | 22.6 µM | – | 36.3 | – | – | – | – | – | – | – | – | – |
